# Laboratory results reported in patent publication US9278925B2, “Substituted 3-(biphenyl-3-yl)-4-hydroxy-8-methoxy-1-azaspiro[4.5]dec-3-en-2-one” (BAYER INTELLECTUAL PROPERTY GMBH, priority 2011, dated 2016).
# Values joined by “and” are separate entries in the source; they are usually repeats but may differ in a detail not shown here. Equal entries are not always repeated. Where two headings read alike, the source gives them in different places.
# Legend:
# [1] = Maximum tolerated dose (MTD) in female nude mice; assay type: in vivo, mouse; settings: for Deaths: 21 days; for MTD at 21 days: female, NMRI-nude (nu/nu), mouse, in vivo, administration once per day
# Protocol: To this end, initially the maximum tolerable dose (MTD) was determined using the following protocol:
# The MTD was defined as the highest dose which could be administered without any animal dying during the treatment phase, and without any body weight loss of more than 10% compared to the initial weight.
# (§1) Administration route: oral
# • (Solutol HS15: polyoxyethylene ester of 12-hydroxystearic acid) Administration volume: 10 ml/kg: Protocol: see Table 7
# The treatment phase was followed by an observation phase of 21 days.
# [2] = test system: human PC-3 cells; settings: for Deaths / T/C: 2 administrations per day; for T/C: final tumour weight; for tolerability (good: body weight change <=minus 10% and 100% survival): administration 2 times per day
# Protocol: Xenograft models in immunosuppressed mice were used to determine the antitumour activity in living organisms.
# Use was made primarily of a prostate carcinoma model with hormone-independent human PC-3 cells in male nude mice (NMRI-nude (nu/nu) mice, Taconic M&B A/S). To this end, 3 million tumour cells (suspended in medium+Matrigel 1:1, final 0.1 ml) were injected subcutaneously into the side of each animal. When the tumours extended to an area of 20-30 mm^2, the mice were randomized into therapy groups and therapy was initiated. […] At this point in time, the experiment was terminated in all groups and the prepared tumours were weighed.
# The T/C value was calculated as primary success parameter using the effect on the final tumour weight: mean tumour weight in the treatment group divided by mean of the tumour weight in the vehicle group.
# as §1
# Vehicle: PEG400/ethanol/Solutol HS 15 (70/5/25, v/v/v)
# Administration volume: 10 ml/kg
# Number of mice: see Table 8
# [3] = Pharmacokinetic parameters in the rat (i.v. and intragastric); assay type: in vivo; settings: for clearance / Vd / half-life: male, plasma; for clearance: read-out: CLplasma (converted); for Vd: read-out: Vss; for half-life: terminal, read-out: t½ (converted); for F: oral bioavailability
# Protocol: Determination of the Pharmacokinetic Parameters of a Test Substance in the Rat and in the Dog For this, the test substances were applied in dissolved form both for intravenous, and for intragastric application, wherein compatible solubilizers such as PEG400 and/or ethanol were used in a compatible amount. […] Administration was as a bolus injection in the male rat and as an infusion in the female dog (15 min) At various time points after the bolus injection, and before and after the 15-minute infusion, blood samples of about 100-150 μl were removed via a catheter either from the jugular vein (rat) or from the saphenous vein (dog). Lithium-heparin was added as anticoagulant to the blood samples and they were stored in a refrigerator until required for further processing. After centrifugation of the samples for 15 min at 3000 rpm, an aliquot of 100 μl was taken from the supernatant (plasma) and was precipitated by adding 400 μl of cold ACN or methanol (absolute). The precipitated samples were frozen-out at […] overnight, then centrifuged again at 3000 rpm for 15 min, before 150 μl of the clear supernatant were removed to determine the concentration. The analysis was effected by means of an Agilent 1200 HPLC system with connected LCMS/MS detection. Calculation of the PK parameters (using PK calculation software, e.g. WinNonLin®): CLplasma: total plasma clearance of the test substance (in 1*kg/h); CLblood: total blood clearance of the test substance (in 1*kg/h), where (CLblood=CLplasma*Cp/Cb); Vss: apparent steady-state distribution volume (in 1/kg); t½: half-life within a specified interval (here: terminal t½, in h); AUCnorm: area under the plasma concentration time profile from time point zero extrapolated to infinity divided by the dose normalized for body weight (in kg*l/h); AUC(0-tn)norm: integrated area under the plasma concentration time profile from time point zero until the last time point at which a plasma concentration was measurable, divided by the dose normalized for body weight (in kg*l/h); Cmax: maximum concentration of the test substance in the plasma (in μg/l); Cmax,norm: maximum concentration of the test substance in the plasma divided by the dose normalized for body weight (in kg/l); Cb/Cp: ratio of the blood to plasma concentration distribution. […] At various time points after administration, blood samples of about 100-150 μl were removed via a catheter either from the jugular vein (rat) or from the saphenous vein (dog). Lithium-heparin was added as anticoagulant to the blood samples and they were stored in a refrigerator until required for further processing. After centrifugation of the samples for 15 min at 3000 rpm, an aliquot of 100 μl was taken from the supernatant (plasma) and was precipitated by adding 400 μl of cold ACN or methanol (absolute). The precipitated samples were frozen-out at −20° C. overnight, then centrifuged at 3000 rpm for 15 min, before 150 μl of the clear supernatant were removed to determine the concentration. The analysis was effected by means of an Agilent 1200 HPLC system with connected LCMS/MS detection. […]
# [4] = Prediction of human pharmacokinetic parameters and human therapeutic dosage (single species scaling from rat); settings: human, plasma; for AUC: read-out: calc. AUC (human); for clearance: predicted (fu-corrected) from rat PK, read-out: pred. CL (human) (converted)
# Protocol: The human pharmacokinetic (PK) parameters (Table 9) were predicted based on the in vivo PK parameters obtained for rats (single species scaling), taking into account the interspecies differences in the free fraction (fu) in the plasma. The effective AUC (area under curve) was determined based on the measured plasma concentration time profile for in vivo efficacy in the PC3 tumour model of the mouse (nu/nu mouse). The therapeutic human dosage was determined using the predicted human clearance (CL), assuming 100% bioavailability (F=1) and using the effective AUC in the animal model according to the formula below: […]
# [5] = Effective AUC from plasma concentration time profile in the PC3 tumour model; assay type: in vivo, mouse; settings: nu/nu, plasma, oral, read-out: ther. AUC (mouse)
# Protocol: The human pharmacokinetic (PK) parameters (Table 9) were predicted based on the in vivo PK parameters obtained for rats (single species scaling), taking into account the interspecies differences in the free fraction (fu) in the plasma. The effective AUC (area under curve) was determined based on the measured plasma concentration time profile for in vivo efficacy in the PC3 tumour model of the mouse (nu/nu mouse).
# [6] = test system: human ACC1; test: Human ACC1 enzyme assay (ADP-Glo); assay type: biochemical; settings: for Ratio IC50s ACC2/ACC1 (respective measurement): pairwise, same dilution series
# Protocol: (§2) Typical concentrations were in the range of 1.75 μl.
# [7] = molecular target: human ACC2 (Homo sapiens (Human), UniProt O00763); test: Human ACC2 enzyme assay (ADP-Glo); settings: read-out: ACC 2 IC50; individual measurement (measurement no./preparation no. in table)
# [8] = molecular target: human ACC1 (Homo sapiens, UniProt Q13085); test: Human ACC1 enzyme assay (ADP-Glo); assay type: biochemical; settings: individual measurement (measurement no./preparation no. in table); read-out: ACC 1 IC50
# Protocol: as §2
# [9] = 100 mg/kg oral, 1 administration per day
# [10] = from mouse dosage 80 mg/kg 2 × per day
# [11] = dosage (mouse) 80 mg/kg 2 × per day
# human ACC2, sequence (O00763 27-2458 limits assumed): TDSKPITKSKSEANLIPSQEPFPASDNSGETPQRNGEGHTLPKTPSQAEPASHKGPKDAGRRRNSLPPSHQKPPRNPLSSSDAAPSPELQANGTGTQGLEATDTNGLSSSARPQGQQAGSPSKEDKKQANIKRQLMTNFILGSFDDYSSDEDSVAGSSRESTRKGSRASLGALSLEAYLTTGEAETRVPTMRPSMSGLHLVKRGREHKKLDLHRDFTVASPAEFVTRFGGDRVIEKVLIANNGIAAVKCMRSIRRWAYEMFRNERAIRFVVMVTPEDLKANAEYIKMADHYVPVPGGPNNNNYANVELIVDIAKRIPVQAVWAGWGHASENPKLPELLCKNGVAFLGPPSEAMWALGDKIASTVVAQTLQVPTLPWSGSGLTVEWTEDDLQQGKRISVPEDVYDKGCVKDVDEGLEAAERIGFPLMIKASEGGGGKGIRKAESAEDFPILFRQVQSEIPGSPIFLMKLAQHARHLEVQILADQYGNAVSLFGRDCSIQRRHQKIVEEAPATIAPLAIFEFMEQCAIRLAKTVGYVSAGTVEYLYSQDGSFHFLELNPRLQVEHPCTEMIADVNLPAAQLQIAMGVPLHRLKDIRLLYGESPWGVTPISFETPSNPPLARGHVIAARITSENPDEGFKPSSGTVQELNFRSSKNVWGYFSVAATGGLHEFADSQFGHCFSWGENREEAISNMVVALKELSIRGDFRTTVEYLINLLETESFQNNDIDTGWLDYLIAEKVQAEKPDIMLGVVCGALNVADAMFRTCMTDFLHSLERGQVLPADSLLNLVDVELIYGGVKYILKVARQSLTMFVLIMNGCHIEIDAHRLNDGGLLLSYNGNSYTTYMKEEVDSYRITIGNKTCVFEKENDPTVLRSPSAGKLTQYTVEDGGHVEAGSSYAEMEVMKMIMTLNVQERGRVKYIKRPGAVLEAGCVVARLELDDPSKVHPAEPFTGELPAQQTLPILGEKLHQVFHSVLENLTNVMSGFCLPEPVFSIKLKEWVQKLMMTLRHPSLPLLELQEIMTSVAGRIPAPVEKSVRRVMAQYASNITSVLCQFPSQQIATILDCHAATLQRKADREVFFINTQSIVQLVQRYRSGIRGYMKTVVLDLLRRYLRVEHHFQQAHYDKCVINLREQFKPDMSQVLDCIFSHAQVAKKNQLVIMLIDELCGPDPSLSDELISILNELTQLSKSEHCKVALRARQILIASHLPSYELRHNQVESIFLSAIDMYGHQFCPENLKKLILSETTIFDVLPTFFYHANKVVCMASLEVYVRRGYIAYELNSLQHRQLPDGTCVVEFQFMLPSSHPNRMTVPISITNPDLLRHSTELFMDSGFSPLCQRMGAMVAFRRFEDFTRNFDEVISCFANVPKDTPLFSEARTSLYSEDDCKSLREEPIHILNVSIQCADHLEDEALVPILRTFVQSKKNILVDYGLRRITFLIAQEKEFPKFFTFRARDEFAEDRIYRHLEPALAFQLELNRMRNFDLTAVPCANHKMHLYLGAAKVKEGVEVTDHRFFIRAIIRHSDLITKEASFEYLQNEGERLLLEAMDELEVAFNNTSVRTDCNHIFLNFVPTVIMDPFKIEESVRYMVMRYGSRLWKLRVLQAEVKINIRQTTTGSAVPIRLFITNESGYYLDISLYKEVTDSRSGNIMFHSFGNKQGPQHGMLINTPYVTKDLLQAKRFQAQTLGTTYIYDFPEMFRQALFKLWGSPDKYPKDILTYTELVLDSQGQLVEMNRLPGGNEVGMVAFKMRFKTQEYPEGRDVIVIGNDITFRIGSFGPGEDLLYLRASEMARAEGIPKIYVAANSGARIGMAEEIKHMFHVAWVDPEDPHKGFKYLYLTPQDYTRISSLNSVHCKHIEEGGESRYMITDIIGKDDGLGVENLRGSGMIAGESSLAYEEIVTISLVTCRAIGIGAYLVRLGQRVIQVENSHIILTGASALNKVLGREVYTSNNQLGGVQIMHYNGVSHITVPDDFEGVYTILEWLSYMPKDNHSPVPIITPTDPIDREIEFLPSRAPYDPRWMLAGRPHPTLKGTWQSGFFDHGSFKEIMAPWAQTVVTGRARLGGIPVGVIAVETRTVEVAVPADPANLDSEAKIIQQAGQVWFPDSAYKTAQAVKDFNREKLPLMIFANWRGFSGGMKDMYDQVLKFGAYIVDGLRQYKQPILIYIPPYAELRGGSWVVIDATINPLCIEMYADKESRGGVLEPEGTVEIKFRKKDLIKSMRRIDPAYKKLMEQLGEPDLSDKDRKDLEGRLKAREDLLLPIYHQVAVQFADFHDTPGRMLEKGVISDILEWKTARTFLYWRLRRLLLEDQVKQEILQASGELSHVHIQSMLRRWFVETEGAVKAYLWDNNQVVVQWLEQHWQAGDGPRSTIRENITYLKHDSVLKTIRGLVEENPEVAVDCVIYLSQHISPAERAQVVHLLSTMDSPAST
Compound,"Deaths [1, 9]","MTD at 21 days ([1]; 21-day treatment, oral) [mg/kg]","Deaths ([2]; 80 mg/kg oral, 17 days)","T/C ([2]; 80 mg/kg oral, 17 days)",tolerability (good: body weight change <=minus 10% and 100% survival) ([2]; 80 mg/kg),CLblood [3] [L/h/kg],clearance ([3]; intravenous) [mL/min/kg],Vd ([3]; intravenous) [L/kg],half-life [3] [days],F [3] [%],"AUC [4, 10] [µg·h/mL]",clearance [4] [mL/h/kg],"AUC [5, 11] [µg·h/mL]",Selectivity ACC1 vs. ACC2 (mean of the individual measurements ± standard deviation) [6],Ratio IC50s ACC2/ACC1 (respective measurement) [6],IC50 [7],IC50 [8],further results
"COC[C@]1(OC)CC[C@@]2(CC1)NC(=O)C(c1cc(-c3ccc(Cl)c(F)c3)ccc1C)=C2O [Example 1-4, (5r,8r)-3-(4′-Chloro-3′-fluoro-4-methylbiphenyl-3-yl)-4-hydroxy-8-methoxy-8-(methoxymethyl)-1-azaspiro[4.5]dec-3-en-2-one]",0 of 4,> 100,0 of 10,0.29,good tolerability,0.011,0.117,0.44,2.12,83,4130,3,712,–,–,–,–,"Deaths ([1]; 25 mg/kg oral, 2 administrations per day): 0 of 4; Deaths ([1]; 50 mg/kg oral, 2 administrations per day): 0 of 4; Deaths ([1]; 75 mg/kg oral, 2 administrations per day): 0 of 4; Deaths ([1]; 100 mg/kg oral, 2 administrations per day): 0 of 4; MTD ([1]; 21-day treatment, administration twice per day, oral): higher than 100 mg/kg"
"CO[C@]1(C(F)(F)F)CC[C@]2(CC1)NC(=O)C(c1cc(-c3ccc(Cl)c(F)c3)ccc1C)=C2O [Example 1-2, (5r,8r)-3-(4′-Chloro-3′-fluoro-4-methylbiphenyl-3-yl)-4-hydroxy-8-methoxy-8-(trifluoromethyl)-1-azaspiro[4.5]dec-3-en-2-one]",–,–,0 of 9,0.28,good tolerability,0.039,0.483,2.4,2.71,131,842,9,156,–,–,–,–,"Deaths ([2]; 40 mg/kg oral, 17 days): 0 of 9; T/C ([2]; 40 mg/kg oral, 17 days): 0.44; tolerability (good: body weight change <=minus 10% and 100% survival) ([2]; 40 mg/kg): good tolerability; AUC ([4]; from mouse dosage 40 mg/kg 2 × per day): 355 µg·h/mL; AUC ([5]; dosage (mouse) 40 mg/kg 2 × per day): 66 µg·h/mL"
"CO[C@]1(C(F)(F)F)CC[C@]2(CC1)NC(=O)C(c1cc(-c3ccc(Cl)cc3)ccc1C)=C2O [Example 1-1, (5r,8r)-3-(4′-Chloro-4-methylbiphenyl-3-yl)-4-hydroxy-8-methoxy-8-(trifluoromethyl)-1-azaspiro[4.5]dec-3-en-2-one]",0 of 4,> 100,–,–,good tolerability,0.011,0.1,0.85,4.29,163,1160,2,289,–,–,–,–,"Deaths ([1]; 12.5 mg/kg oral, 1 administration per day): 0 of 4; Deaths ([1]; 25 mg/kg oral, 1 administration per day): 0 of 4; Deaths ([1]; 50 mg/kg oral, 1 administration per day): 1 of 4; Deaths ([1]; 75 mg/kg oral, 1 administration per day): 0 of 4; Deaths ([2]; 80 mg/kg oral, 15 days): 0 of 10; T/C ([2]; 80 mg/kg oral, 15 days): 0.34"
"COC[C@H]1CC[C@]2(CC1)NC(=O)C(c1cc(-c3ccc(Cl)cc3)ccc1C)=C2O [V.3-b, (5s,8s)-3-(4′-Chloro-4-methylbiphenyl-3-yl)-4-hydroxy-8-(methoxymethyl)-1-azaspiro[4.5]dec-3-en-2-one]",–,–,–,–,–,–,–,–,–,–,–,–,–,6.4,6.4,–,–,–
"COC[C@H]1CC[C@]2(CC1)NC(=O)C(c1cc(-c3ccc(Cl)c(F)c3)ccc1C)=C2O [V.4-b, (5s,8s)-3-(4′-Chloro-3′-fluoro-4-methylbiphenyl-3-yl)-4-hydroxy-8-(methoxymethyl)-1-azaspiro[4.5]dec-3-en-2-one]",–,–,–,–,–,–,–,–,–,–,–,–,–,15.2,15.2,1.12 µM,73 nM,–
"COC[C@]1(OC)CC[C@@]2(CC1)NC(=O)C(c1cc(-c3ccc(Cl)cc3)ccc1C)=C2O [Example 1-3, (5r,8r)-3-(4′-Chloro-4-methylbiphenyl-3-yl)-4-hydroxy-8-methoxy-8-(methoxymethyl)-1-azaspiro[4.5]dec-3-en-2-one]",–,–,–,–,–,0.005,–,–,3.29,68,–,–,–,47.0 ± 2.1,49.0 and 44.9,8.08 µM and 6.55 µM,165 nM and 146 nM,clearance ([3]; iv): 0.0333 mL/min/kg; Vd ([3]; iv): 0.29 L/kg
